We go through five molecules from patent publication EP4458977A1, “SELF-ASSEMBLING PEPTIDE AMPHIPHILES AS RETROVIRAL TRANSDUCTION ENHANCERS” (Max-Planck-Gesellschaft zur Förderung der Wissenschaften …, priority 2023, dated 2024).

Data set [1] can be described thus: Zeta-potential measurement (dynamic light scattering). The data set is classed as physicochemical. The conditions noted are these: for Count Rate / kcps: derived count rate of scattered light during zeta-potential measurements. Here is the method: Zeta-potential: 60 µL of the peptides (1 mg mL-1) were diluted in 600 µL, 1 mM KCI solution and placed in a disposable folded capillary cuvette. All zeta-potential measurements were conducted by dynamic light scattering technology (Zetasizer, Malvern Instruments) and in triplicates for each sample. The derived count rate of the zeta potential measurement was used as information on the light scattering intensity and turbidity of the sample as a further indicator for microscopic aggregation.

The nature of data set [2]: Thioflavin T (ThT) fluorescence assay. The data set is classed as physicochemical. The conditions noted are these: relative to PBS control. How it is done:
Transmission electron microscopy (TEM) measurements, Thioflavin (ThT), zeta-potential measurements for fibril characterization were prepared and conducted according to prior art procedures. […] Fibrils were defined as distinct, if no visible structures could be identified in fluorescence and brightfield microscopy. A peptide fibril was considered as ThT-active if the fluorescence intensity was at least twice as strong compared to the control (PBS containing 10% DMSO).

The nature of data set [3]: ATR-FT-IR determination of β-sheet content. The data set is classed as physicochemical. To be noted: 1 mg/mL in PBS lyophilized; integral at 1630 cm^-1 relative to 1650-1700 cm^-1. Put shortly:
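Lyophilized fibril samples measured by diamond ATR-FT-IR, 2 cm^-1 resolution, 64 scans averaged. β-sheet content taken from the second-derivative spectrum as the 1630 cm-1 peak integral relative to the 1650-1700 cm-1 integral.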

The nature of data set [4]: TEM of peptide assemblies (fibril formation / assembly). The data set is classed as physicochemical. Also noted: key to Fibril Formation: "1" means fibril formation observed; "0" means no fibrils observed. The conditions noted are these: for TEM morphology (in words): 1 mg/mL in PBS; for Assembly without hydrophob residue: corresponding peptide without hydrophobic moiety; for Assembly: peptide amphiphile; for Fibril Formation: via TEM. An outline of the steps: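 Peptides predissolved in DMSO at 10 mg/mL (stock), diluted in PBS to 650 µM or 1 mg/mL final and incubated 1 d at rt (20–25 °C) to form fibrils. Other concentrations obtained by diluting preformed fibrils; assemblies imaged by TEM.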

A further data set has as its system HeLa cells. Put plainly: Confocal laser scanning microscopy and degradation study with PA library and HeLa cells. The data set is classed as cell-based. To be noted: for association with cellular membranes: 2 µg added to 20.000 HeLa cells, 30 min; for degradability (in words) / Degradability / % (rel. to initial particles > 10 µm^2): HeLa cells; for degradability (in words): 3 days; for Degradability / % (rel. to initial particles > 10 µm^2): 3 d relative to 30 min; for aggregate number decreases / degraded in presence of HeLa cells within 3 days: d3 relative to d0. An outline of the steps:
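HeLa cells (20,000/well) got Proteostat-stained PAs (2 µg peptide per 20.000 cells) with Hoechst nuclear stain, 30 min at 37°C, PBS-washed, then held 3 d at 37°C unwashed. Confocal imaging at d0 and d3 counted aggregates >10 µm^2 in 1008 × 1008 µm, three technical replicates. Degradation taken as d3/d0 aggregate number.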

Data set [5] can be described thus: Fluorescence microscopy of ThT-stained fibrils (µm-sized aggregates). The data set is classed as physicochemical. To be noted: for fluorescent, µm-sized aggregates (ThT staining): 1 mg/mL stained with 50 µM ThT. An outline of the steps: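 Fibrils (1 mg mL^-1) mixed 1:9 with 50 µM ThT, giving 0.1 mg mL^-1 stained fibrils on glass. Imaged under 10x air objective with excitation 480/40 nm and emission 527/30 nm. Fibrils called distinct when no visible structures appeared in fluorescence or brightfield.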

A further data set deals with HIV-1. The conditions noted are these: for enhancement of HIV-1 infection / transduction (in words): 6.5 µM, 1.3 µM, 0.26 µM; for Infectivity enhancing N fold at 1.3 µM: relative to virus only.
Data set [6] in a line: Zeta-potential measurement (dynamic light scattering). The data set is classed as physicochemical.

Entries after “also recorded” stand apart in the source; their conditions may differ. Like-named read-outs stand apart in the source and are kept apart here. Where a SMILES comes first, the peptide text is derived from it. Where no end group is shown, it is not given here. The star is where a group is joined. X1 = CC/C=C\C/C=C\C/C=C\C/C=C\C/C=C\CCCC(=O)*; Fmoc = O=C(OCC1c2ccccc2-c2ccccc21)*; Palmitoyl = CCCCCCCCCCCCCCCC(=O)*; Nonanoyl = CCCCCCCCC(=O)*
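For Infectivity enhancing N fold at 1.3 µM in this document: TZM-bl reporter cells exposed to HIV-1 with peptide fibrils, infection read out as β-galactosidase luminescence, compared with virus alone.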
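For enhancement of HIV-1 infection / transduction (in words) in this document: TZM-bl reporter cells exposed to HIV-1 with peptide fibrils, infection read out as β-galactosidase luminescence, compared with virus alone.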
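For enhances infectivity at 1.3 µM concentration, times more efficient compared to virus only infection in this document: TZM-bl reporter cells exposed to HIV-1 with peptide fibrils, infection read out as β-galactosidase luminescence, compared with virus alone.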
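For infectivity enhancement at 1.3 µM concentration compared to virus only infection (in words) in this document: TZM-bl reporter cells exposed to HIV-1 with peptide fibrils, infection read out as β-galactosidase luminescence, compared with virus alone.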

Description for HIV-1: HIV-1 Infection Assay with TZM-bl cells: The effect of peptide fibrils on HIV-1 infection was studied via a luminescence assay for β-galactosidase, which was reported by TZM-bl cells upon infection. The HIV-1 infection assay was conducted in three technical replicates and repeated in three independent experiments unless stated otherwise.

Consider “C16-thioester-CVVVAAAKKK-NH2 (C(Palmitoyl)VVVAAAKKK-NH2; N-terminus assumed; SMILES CCCCCCCCCCCCCCCC(=O)SC[C@H](N)C(=O)N[C@H](C(=O)N[C@H](C(=O)N[C@H](C(=O)N[C@@H](C)C(=O)N[C@@H](C)C(=O)N[C@@H](C)C(=O)N[C@@H](CCCCN)C(=O)N[C@@H](CCCCN)C(=O)N[C@@H](CCCCN)C(N)=O)C(C)C)C(C)C)C(C)C) [Pat3]”, for which the “Count Rate / kcps” value in data set [1] was 2058.5 kcps. The “N-fold ThT-fluorescence” value in data set [2] is listed as 166.1. Further, the β-sheet amount in data set [3] worked out at 50%. For the same molecule, in data set [4], the “TEM morphology (in words)” value is given as “fibrillar morphologies”, the “Assembly without hydrophob residue” value is listed as “No” and the Assembly entry is listed as “Yes”. The “Fibril Formation” value in data set [4] (linkage chemistry exchange) is given as 1. Also, in the data set with HeLa cells, the “association with cellular membranes” value is reported as “association with cellular membranes”, the “degradability (in words)” value is given as “degradable PA”, the “Degradability / % (rel. to initial particles > 10 µm^2)” value (“Degradability / %” for short) is listed as 87% and the “aggregate number decreases / degraded in presence of HeLa cells within 3 days” value (“aggregate number decreases / degraded” below) was found to be 87%. Besides, the “fluorescent, µm-sized aggregates (ThT staining)” value (shortened to “fluorescent … (ThT staining)”) in data set [5] is recorded as “fluorescent, µm-sized aggregates”. For the same molecule, in the data set on HIV-1, the “enhances infectivity at 1.3 µM concentration, times more efficient compared to virus only infection” value is on record as 11 times; the “enhancement of HIV-1 infection / transduction (in words)” value is given as “potent enhancers of HIV-1 infection”; the “Infectivity enhancing N fold at 1.3 µM” value was determined as 11±4 N fold. In data set [6], the “Zeta-Potential / mV” value came out at 18.3 mV.

In the case of “C16-ester-SVVVAAAKKK-NH2 (S(Palmitoyl)VVVAAAKKK-NH2; N-terminus assumed; SMILES CCCCCCCCCCCCCCCC(=O)OC[C@H](N)C(=O)N[C@H](C(=O)N[C@H](C(=O)N[C@H](C(=O)N[C@@H](C)C(=O)N[C@@H](C)C(=O)N[C@@H](C)C(=O)N[C@@H](CCCCN)C(=O)N[C@@H](CCCCN)C(=O)N[C@@H](CCCCN)C(N)=O)C(C)C)C(C)C)C(C)C) [Pat1]”, in data set [1], the “Count Rate / kcps” value is 3217.3 kcps. In data set [2], the “N-fold ThT-fluorescence” value is given as 277.1. The β-sheet amount in data set [3] is 43%. Further, in data set [4], the “TEM morphology (in words)” value is given as “fibrillar morphologies”, the “Assembly without hydrophob residue” value was “No” and the Assembly entry was “Yes”. The “Fibril Formation” value in data set [4] (linkage chemistry exchange) was 1. In the data set with HeLa cells, the “association with cellular membranes” value is “association with cellular membranes”; the “degradability (in words)” value is “degraded well, but not as efficient as PA1 or Pat3; also recorded: degradable PA”; the “Degradability / %” value is 31%; the “aggregate number decreases / degraded” value amounted to 30%. In addition, the “fluorescent … (ThT staining)” value in data set [5] is listed as “fluorescent, µm-sized aggregates”. For the same molecule, in the data set on HIV-1, the “enhances infectivity at 1.3 µM concentration, times more efficient compared to virus only infection” value came to 17 times and the “Infectivity enhancing N fold at 1.3 µM” value is 17±5 N fold. Further, the “Zeta-Potential / mV” value in data set [6] stood at 20.5 mV.

`CC/C=C\C/C=C\C/C=C\C/C=C\C/C=C\CCCC(=O)N[C@H](C(=O)N[C@H](C(=O)N[C@H](C(=O)N[C@@H](C)C(=O)N[C@@H](C)C(=O)N[C@@H](C)C(=O)N[C@@H](CCCCN)C(=O)N[C@@H](CCCCN)C(=O)N[C@@H](CCCCN)C(N)=O)C(C)C)C(C)C)C(C)C` [Pat10] (X1-VVVAAAKKK-NH2): in data set [1], the “zeta-potential (in words)” value is recorded as “positive zeta-potential” and the “Count Rate / kcps” value is reported as 6069.8 kcps. Moreover, the “N-fold ThT-fluorescence” value in data set [2] was 61.9. Moreover, the β-sheet amount in data set [3] is on record as 51%. Besides, in data set [4], the “TEM morphology (in words)” value is listed as “able to form fibrils; also recorded: condensed spherical structures composed of fibrils”, the “Assembly without hydrophob residue” value is listed as “No” and the Assembly entry is reported as “Yes”. The “Fibril Formation” value in data set [4] (hydrophobic moiety exchange) is 1. Further, in the data set on HeLa cells, the “association with cellular membranes” value is recorded as “association with cellular membranes”, the “degradability (in words)” value is “degradable PA”, the “Degradability / %” value amounted to 99% and the “aggregate number decreases / degraded” value is on record as 99%. Also, in data set [5], the “formation of µm-sized aggregates in aqueous medium / PBS (in words)” value (“formation … in aqueous medium / PBS (in words)” below) was “form µm-sized aggregates” and the “fluorescent … (ThT staining)” value was “fluorescent, µm-sized aggregates”. Besides, in the data set on HIV-1, the “enhances infectivity at 1.3 µM concentration, times more efficient compared to virus only infection” value was determined as 12 times; the “enhancement of HIV-1 infection / transduction (in words)” value is reported as “showed infectivity enhancement”; the “Infectivity enhancing N fold at 1.3 µM” value came to 12±1 N fold. In the data set on HIV-1 (listed as peptide amphiphile with eicosapentaenoic acid (EPA)), the “enhancement of HIV-1 infection / transduction (in words)” value is listed as “even stronger infectivity enhancement than the reference compounds EF-C or PA1”. The “Zeta-Potential / mV” value in data set [6] was 16.9 mV.

As to `CC(C)[C@H](NC(=O)OCC1c2ccccc2-c2ccccc21)C(=O)N[C@H](C(=O)N[C@H](C(=O)N[C@@H](C)C(=O)N[C@@H](C)C(=O)N[C@@H](C)C(=O)N[C@@H](CCCCN)C(=O)N[C@@H](CCCCN)C(=O)N[C@@H](CCCCN)C(N)=O)C(C)C)C(C)C` [Pat12] (Fmoc-VVVAAAKKK-NH2), in data set [1], the “zeta-potential (in words)” value is on record as “positive zeta-potential” and the “Count Rate / kcps” value is given as 509.5 kcps. Also, the “N-fold ThT-fluorescence” value in data set [2] is listed as 269.9. Besides, the β-sheet amount in data set [3] came to 52%. Also, in data set [4], the “TEM morphology (in words)” value is given as “able to form fibrils; also recorded: fibrillar morphologies”, the “Assembly without hydrophob residue” value is listed as “No” and the Assembly entry is “Yes”. Further, in data set [4] (hydrophobic moiety exchange), the “Fibril Formation” value amounted to 1. In the data set on HeLa cells, the “association with cellular membranes” value is “association with cellular membranes”, the “degradability (in words)” value is recorded as “non-degradable PA”, the “Degradability / %” value is recorded as 28% and the “aggregate number decreases / degraded” value is recorded as 28%. In data set [5], the “formation … in aqueous medium / PBS (in words)” value is given as “form µm-sized aggregates” and the “fluorescent … (ThT staining)” value is “fluorescent, µm-sized aggregates”. In the data set with HIV-1, the “enhances infectivity at 1.3 µM concentration, times more efficient compared to virus only infection” value was found to be 5 times; the “enhancement of HIV-1 infection / transduction (in words)” value is recorded as “showed infectivity enhancement”; the “Infectivity enhancing N fold at 1.3 µM” value is listed as 5±1 N fold. In addition, the “Zeta-Potential / mV” value in data set [6] amounted to 15.2 mV.

With `CCCCCCCCC(=O)N[C@H](C(=O)N[C@H](C(=O)N[C@H](C(=O)N[C@@H](C)C(=O)N[C@@H](C)C(=O)N[C@@H](C)C(=O)N[C@@H](CCCCN)C(=O)N[C@@H](CCCCN)C(=O)N[C@@H](CCCCN)C(N)=O)C(C)C)C(C)C)C(C)C` [Pat8] (Nonanoyl-VVVAAAKKK-NH2), in data set [1], the “Count Rate / kcps” value came to 77.2 kcps. The “N-fold ThT-fluorescence” value in data set [2] was 37.1. This molecule also had a β-sheet amount in data set [3] of 49%. Moreover, in data set [4], the “TEM morphology (in words)” value is recorded as “formed fibrils in aqueous medium; also recorded: fibrillar morphologies”, the “Assembly without hydrophob residue” value is reported as “No” and the Assembly result is given as “Yes”. The “Fibril Formation” value in data set [4] (hydrophobic moiety exchange) amounted to 1. Also, in the data set on HeLa cells, the “association with cellular membranes” value is “association with cellular membranes”, the “degradability (in words)” value was “non-degradable PA”, the “Degradability / %” value is reported as 78% and the “aggregate number decreases / degraded” value is on record as 78%. Also, in data set [5], the “formation … in aqueous medium / PBS (in words)” value is recorded as “failed to form µm-sized aggregates in aqueous medium” and the “fluorescent … (ThT staining)” value was “fluorescent, µm-sized aggregates”. Further, in the data set on HIV-1, the “infectivity enhancement at 1.3 µM concentration compared to virus only infection (in words)” value was “does not enhance infectivity” and the “Infectivity enhancing N fold at 1.3 µM” value is listed as 2±0 N fold. In data set [6], the “Zeta-Potential / mV” value came out at 13.5 mV.
